Laboratory results taken from US20130090377A1, “COMPOSITION COMPRISING COUMESTROL OR A BEAN EXTRACT CONTAINING COUMESTROL” (AMOREPACIFIC CORPORATION, priority 2010, published 2013).

Columns and labels:
SIRT1 = target: T1, SIRT1 (Homo sapiens, UniProt Q96EB6); assay: SIRT1 activity assay kit (Biomol), SIRT1 activating effect; format: biochemical; details: FIG. 1
T1 construct: Biomol
T1 sequence (Q96EB6 1-747): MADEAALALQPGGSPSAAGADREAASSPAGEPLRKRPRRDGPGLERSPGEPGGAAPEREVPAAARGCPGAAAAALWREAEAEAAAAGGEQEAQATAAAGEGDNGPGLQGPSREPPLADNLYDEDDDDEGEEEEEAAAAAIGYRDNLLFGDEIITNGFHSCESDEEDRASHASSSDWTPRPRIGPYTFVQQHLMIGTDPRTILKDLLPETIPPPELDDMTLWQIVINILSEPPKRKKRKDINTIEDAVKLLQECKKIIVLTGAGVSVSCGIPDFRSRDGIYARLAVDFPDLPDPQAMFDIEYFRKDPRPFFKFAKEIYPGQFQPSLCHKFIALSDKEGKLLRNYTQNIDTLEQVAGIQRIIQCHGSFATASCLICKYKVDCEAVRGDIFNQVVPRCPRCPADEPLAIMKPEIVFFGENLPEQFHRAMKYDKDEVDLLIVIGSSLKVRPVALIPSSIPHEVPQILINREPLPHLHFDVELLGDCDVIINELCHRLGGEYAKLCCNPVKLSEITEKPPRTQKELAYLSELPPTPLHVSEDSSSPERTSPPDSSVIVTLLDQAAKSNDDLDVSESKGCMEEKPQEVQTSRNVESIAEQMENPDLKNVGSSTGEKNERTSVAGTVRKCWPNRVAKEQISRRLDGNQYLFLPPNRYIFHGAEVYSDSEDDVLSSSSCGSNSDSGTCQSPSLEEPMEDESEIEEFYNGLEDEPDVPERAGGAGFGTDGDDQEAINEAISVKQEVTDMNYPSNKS
Experimental: It was tested whether coumestrol can activate SIRT1 using the SIRT1 activity assay kit (Biomol). Cells were treated with 10 μM coumestrol. 50 µM resveratrol (Res), which is known to activate SIRT1, was used as positive control and 1 mM nicotinamide (NAM), which is an inhibitor of SIRT1, was used as negative control.

C2C12 muscle cells [1] = assay: Expression of mitochondria-associated genes at the protein level by western blotting in differentiated C2C12 muscle cells; format: cell-based, mouse; set-up: dose or concentration left out as unconfirmed; details: coumestrol for 24 hours, C2C12 differentiated for a week, FIG. 2
Experimental: (§1) C2C12 muscle cells derived from mouse (mouse myoblasts, ATCC) were differentiated for a week and then treated with […] coumestrol for 24 hours. Then, the expression of mitochondria-associated genes was confirmed at the protein level by western blotting. The tested genes were PGC1 which induces mitochondria biosynthesis and NDUFA9 and ATP5a which are proteins that constitute the mitochondrial electron transport chain.

C2C12 muscle cells [2] = assay: Quantity of mitochondria in cells by fluorescence after MitoTracker Green staining; format: cell-based, mouse; details: coumestrol-treated C2C12 muscle cells, FIG. 3
Experimental: as §1
Also, the quantity of mitochondria in cells was measured by fluorescence after staining with MitoTracker Green (Invitrogen).

- SIRT1 activating effect compared with resveratrol (positive control) (SIRT1; 10 μM coumestrol vs 50 µM resveratrol): comparable to that of resveratrol
- SIRT1 activity relative to the untreated group (SIRT1; 10 μM coumestrol): increased
Structure (SMILES): O=c1oc2cc(O)ccc2c2oc3cc(O)ccc3c12 [coumestrol, 3,9-dihydroxy-6H-benzofuro(3,2-c)(1)benzopyran-6-one]
- expression of mitochondria-associated genes (PGC1, NDUFA9, ATP5a) at the protein level vs untreated group (C2C12 muscle cells [1]): remarkable increase
- quantity of mitochondria in cells vs untreated group (C2C12 muscle cells [2]): remarkable increase
